Tests used:
Assay in all cases: relative viability (nuclei count vs DMSO), 5 days (fraction); higher = more cells survive
[1] = compound: CC1=C(C(=NN1)C)CC2=C(C3=C(S2)N(C(=O)N(C3=O)C)CC(C)C)C(=O)N4C[C@@H](CO4)O + Cc1nc(Nc2ncc(C(=O)Nc3c(C)cccc3Cl)s2)cc(N2CCN(CCO)CC2)n1 [Dasatinib] (partner 0.075 µM)
Procedure, shortened: (§1)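 Cells from lung cancer lines were seeded into 1536-well plates and, one day later, dosed by pin tool. Treatments were either a single drug or a fixed dose of an anchor drug with five library-drug doses (not always all listed) in √10 steps. After 5 days, nuclei were stained in a one-step fixation (final 0.05% Triton X-100, 1% formaldehyde, 1 ug/ml Hoechst) and counted on 4× images, and relative viability is the treated-to-vehicle nuclei ratio, as the median of duplicate plates.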

[2] = compound: Cc1ccccc1C(C(=O)NC1CCCCC1)N(C(=O)Cn1ccnc1C)c1cccc(F)c1 [IDH-C35] + C[C@@H](Oc1cc(-c2cnn(C3CCNCC3)c2)cnc1N)c1c(Cl)ccc(F)c1Cl [Crizotinib] (partner 1 µM)
Procedure, shortened: as §1

[3] = compound: Cc1ccccc1C(C(=O)NC1CCCCC1)N(C(=O)Cn1ccnc1C)c1cccc(F)c1 [IDH-C35] + COc1cc2c(Oc3ccc(NC(=O)C4(C(=O)Nc5ccc(F)cc5)CC4)cc3F)ccnc2cc1OCCCN1CCOCC1 [Foretinib] (partner 0.25 µM)
Procedure, shortened: as §1

[4] = compound: CC1=C(C(=NN1)C)CC2=C(C3=C(S2)N(C(=O)N(C3=O)C)CC(C)C)C(=O)N4C[C@@H](CO4)O + Cc1nc(NC(=O)N2CCC[C@H]2C(N)=O)sc1-c1ccnc(C(C)(C)C(F)(F)F)c1 [Alpelisib] (partner 2 µM)
Procedure, shortened: as §1

| Cell Line | relative viability ([1]; first compound 0.0025 µM) | relative viability ([1]; first compound 0.007906 µM) | relative viability ([1]; first compound 0.025 µM) | relative viability ([1]; first compound 0.07906 µM) | relative viability ([1]; first compound 0.25 µM) | relative viability ([2]; first compound 0.08 µM) | relative viability ([2]; first compound 0.253 µM) | relative viability ([2]; first compound 0.8 µM) | relative viability ([2]; first compound 2.53 µM) | relative viability ([2]; first compound 8 µM) | relative viability ([3]; first compound 0.08 µM) | relative viability ([3]; first compound 0.253 µM) | relative viability ([3]; first compound 0.8 µM) | relative viability ([3]; first compound 2.53 µM) | relative viability ([3]; first compound 8 µM) | relative viability ([4]; first compound 0.0025 µM) | relative viability ([4]; first compound 0.007906 µM) | relative viability ([4]; first compound 0.025 µM) | relative viability ([4]; first compound 0.07906 µM) | relative viability ([4]; first compound 0.25 µM) |
| --- | --- | --- | --- | --- | --- | --- | --- | --- | --- | --- | --- | --- | --- | --- | --- | --- | --- | --- | --- | --- |
| NCI-H1355 | 0.759 | 0.701 | 0.783 | 0.689 | 0.685 | 1.08 | 1.03 | 1.03 | 1.01 | 1.07 | 1.04 | 1.02 | 0.935 | 0.982 | 1 | 0.937 | 0.887 | 0.878 | 0.893 | 0.74 |
| NCI-H1437 | 0.393 | 0.409 | 0.314 | 0.488 | 0.434 | 0.979 | 0.913 | 0.907 | 0.874 | 0.796 | 1.29 | 1.28 | 1.25 | 1.29 | 1.23 | 0.993 | 1 | 0.946 | 0.972 | 1.06 |
| NCI-H1563 | 0.503 | 0.439 | 0.418 | 0.404 | 0.491 | 0.874 | 0.907 | 0.861 | 0.92 | 0.854 | 1.01 | 1.01 | 0.872 | 0.907 | 0.774 | 1 | 0.847 | 0.954 | 0.959 | 0.893 |
| NCI-H1651 | 0.445 | 0.372 | 0.352 | 0.348 | 0.345 | 0.848 | 0.874 | 0.874 | 0.919 | 0.925 | 0.858 | 0.809 | 0.732 | 0.822 | 0.79 | 1.07 | 1.02 | 0.923 | 0.961 | 0.945 |
| NCI-H1666 | 0.796 | 0.88 | 0.776 | 0.798 | 0.923 | 0.995 | 0.942 | 0.968 | 1 | 0.967 | 1.05 | 0.92 | 0.982 | 1.01 | 0.848 | 1.06 | 1.01 | 1.02 | 1.13 | 0.953 |
| NCI-H1734 | 0.504 | 0.543 | 0.453 | 0.484 | 0.473 | 0.69 | 0.729 | 0.623 | 0.638 | 0.729 | 0.799 | 0.913 | 0.936 | 0.796 | 0.774 | 0.692 | 0.771 | 0.667 | 0.757 | 0.677 |
| NCI-H1755 | 0.497 | 0.343 | 0.456 | 0.359 | 0.417 | 0.911 | 0.915 | 0.872 | 0.865 | 0.827 | 0.951 | 0.921 | 0.874 | 0.95 | 0.933 | 0.963 | 1.03 | 0.898 | 0.849 | 1.02 |
| NCI-H1915 | 0.284 | 0.374 | 0.338 | 0.3 | 0.291 | 0.855 | 0.865 | 0.805 | 0.904 | 0.917 | 1.07 | 1.13 | 1.07 | 1.05 | 1.07 | 1.09 | 1.11 | 1.1 | 1.15 | 1.07 |
| NCI-H1944 | 0.238 | 0.253 | 0.235 | 0.234 | 0.221 | 1.12 | 1.18 | 0.979 | 1.04 | 1.22 | 0.91 | 0.934 | 0.888 | 0.827 | 0.798 | 0.858 | 0.858 | 0.921 | 0.847 | 0.761 |
| NCI-H1975 | 0.41 | 0.36 | 0.394 | 0.343 | 0.39 | 1 | 0.967 | 0.93 | 0.924 | 0.876 | 0.938 | 0.951 | 1.01 | 0.974 | 0.862 | 0.668 | 0.538 | 0.723 | 0.719 | 0.745 |
| NCI-H1993 | 0.614 | 0.497 | 0.572 | 0.596 | 0.517 | 0.888 | 0.874 | 0.833 | 0.743 | 0.903 | 0.797 | 0.688 | 0.811 | 0.787 | 0.759 | 0.69 | 0.608 | 0.719 | 0.615 | 0.722 |
| NCI-H2009 | 0.354 | 0.301 | 0.253 | 0.247 | 0.267 | 0.992 | 1 | 1.08 | 0.971 | 0.995 | 1.17 | 1.28 | 1.24 | 1.13 | 1.18 | 1.31 | 1.23 | 1.14 | 1.26 | 1.15 |
| NCI-H2023 | 0.671 | 0.789 | 0.601 | 0.55 | 0.625 | 0.668 | 0.627 | 0.637 | 0.636 | 0.592 | 0.918 | 1 | 1.09 | 0.76 | 0.839 | 0.621 | 0.635 | 0.593 | 0.58 | 0.622 |

Reference: the supplement of paper PMC10307832
